Experimental data: patent US8846653B2, “Delta-tocotrienol treatment and prevention of pancreatic cancer” (University of South Florida, priority 2006, dated 2014)

Tests used:
Type in all cases: cell-based, human
[1] = tested on: SW1990 pancreatic cancer cells; experiment: MTS assay of SW1990 cultures, single 50 μM dose; conditions: SW1990, 50 μM
How it was run: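 MTS-based viability was measured 24, 48 or 72 h after a single 50 μM treatment; the agents were α/β/γ/δ-tocotrienol, α/β-tocopherol, tocopherol succinate, geranylgeraniol or succinic acid. The cells were SW1990, cultured in 10% FBS DMEM. Vehicle (ethanol-extracted olive oil) cultures ran in parallel as reference.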

BXPC3 cells = experiment: MTT assay of BXPC3 cultures, single 50 μM dose; parameters: MTT assay result, run 1 / MTT assay result, run 2 / MTT assay result, run 3 / MTT assay result, run 4 / MTT assay result, run 5 / MTT assay result, run 6 / MTT assay result, run 7 / MTT assay result, av (average) / MTT assay result, av-blank / MTT assay result, av: unit not given here; conditions: BXPC3, 50 μM; for MTT assay result, av-blank: average minus blank; for MTT assay result, av (average) / MTT assay result, av: average of 7 runs
How it was run: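 Viability measured by MTT assay 48 or 120 hours after one 50 μM treatment with tocol-family compounds, geranylgeraniol, succinic acid or vehicle, with untreated cultures in parallel. BXPC3 cells grown in FBS-supplemented medium, 37° C, humidified 5% CO2.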

MiaPaCa-2 cells = experiment: MTS assay of MiaPaCa2 cultures, single 50 μM dose; conditions: MiaPaCa2, 50 μM
How it was run: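 This MTS viability assay used MiaPaCa2 cultures treated once with 50 μM compound or vehicle, with an untreated culture grown in parallel for comparison. Cells were maintained in DMEM supplemented with 10% FBS, 1% penicillin-streptomycin and 1% L-glutamine at 37° C. under 5% CO2 and humidity.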

CC(C)=CCC/C(C)=C/CC/C(C)=C/CC[C@]1(C)CCc2cc(O)cc(C)c2O1 [T3 delta, delta tocotrienol]
rel amnt (relative value set to the control) ([1]; 24 hours): 97
MTS assay result, run 1 ([1]; 24 hours): 0.158
MTS assay result, run 2 ([1]; 24 hours): 0.149
MTS assay result, run 3 ([1]; 24 hours): 0.157
MTS assay result, run 4 ([1]; 24 hours): 0.126
MTS assay result, run 5 ([1]; 24 hours): 0.147
MTS assay result, run 6 ([1]; 24 hours): 0.135
MTS assay result, run 7 ([1]; 24 hours): 0.13
MTS assay result, run 8 ([1]; 24 hours): 0.142
MTS assay result, run 9 ([1]; 24 hours): 0.143
rel amnt (relative value set to the control) ([1]; 48 hours): 83
MTS assay result, run 1 ([1]; 48 hours): 0.131
MTS assay result, run 2 ([1]; 48 hours): 0.133
MTS assay result, run 3 ([1]; 48 hours): 0.12
MTS assay result, run 4 ([1]; 48 hours): 0.12
MTS assay result, run 5 ([1]; 48 hours): 0.126
MTS assay result, run 6 ([1]; 48 hours): 0.119
MTS assay result, run 7 ([1]; 48 hours): 0.12
MTS assay result, run 8 ([1]; 48 hours): 0.142
MTS assay result, run 9 ([1]; 48 hours): 0.127
rel amnt (relative value set to the control) ([1]; 72 hours): 132
MTS assay result, run 1 ([1]; 72 hours): 0.667
MTS assay result, run 2 ([1]; 72 hours): 0.615
MTS assay result, run 3 ([1]; 72 hours): 0.61
MTS assay result, run 4 ([1]; 72 hours): 0.587
MTS assay result, run 5 ([1]; 72 hours): 0.582
MTS assay result, run 6 ([1]; 72 hours): 0.491
MTS assay result, run 7 ([1]; 72 hours): 0.52
MTS assay result, run 8 ([1]; 72 hours): 0.604
MTS assay result, run 9 ([1]; 72 hours): 0.584
rel amt (relative value set to the control) (BXPC3 cells; 48 hours): 95
MTT assay result, av-blank (BXPC3 cells; 48 hours): 0.216
MTT assay result, av (average) (BXPC3 cells; 48 hours): 0.265
MTT assay result, run 1 (BXPC3 cells; 48 hours): 0.26
MTT assay result, run 2 (BXPC3 cells; 48 hours): 0.255
MTT assay result, run 3 (BXPC3 cells; 48 hours): 0.24
MTT assay result, run 4 (BXPC3 cells; 48 hours): 0.263
MTT assay result, run 5 (BXPC3 cells; 48 hours): 0.271
MTT assay result, run 6 (BXPC3 cells; 48 hours): 0.277
MTT assay result, run 7 (BXPC3 cells; 48 hours): 0.288
rel amt (relative value set to the control) (BXPC3 cells; 120 hours (5 days)): 81
MTT assay result, av-blank (BXPC3 cells; 120 hours (5 days)): 0.465
MTT assay result, av (BXPC3 cells; 120 hours (5 days)): 0.520
MTT assay result, run 1 (BXPC3 cells; 120 hours (5 days)): 0.485
MTT assay result, run 2 (BXPC3 cells; 120 hours (5 days)): 0.49
MTT assay result, run 3 (BXPC3 cells; 120 hours (5 days)): 0.522
MTT assay result, run 4 (BXPC3 cells; 120 hours (5 days)): 0.539
MTT assay result, run 5 (BXPC3 cells; 120 hours (5 days)): 0.551
MTT assay result, run 6 (BXPC3 cells; 120 hours (5 days)): 0.523
MTT assay result, run 7 (BXPC3 cells; 120 hours (5 days)): 0.527
rel amt (relative value set to the control) (MiaPaCa-2 cells; 24 hours): 77
MTS assay result, run 1 (MiaPaCa-2 cells; 24 hours): 0.174
MTS assay result, run 2 (MiaPaCa-2 cells; 24 hours): 0.159
MTS assay result, run 3 (MiaPaCa-2 cells; 24 hours): 0.171
MTS assay result, run 4 (MiaPaCa-2 cells; 24 hours): 0.139
MTS assay result, run 5 (MiaPaCa-2 cells; 24 hours): 0.185
MTS assay result, run 6 (MiaPaCa-2 cells; 24 hours): 0.187
MTS assay result, run 7 (MiaPaCa-2 cells; 24 hours): 0.18
MTS assay result, run 8 (MiaPaCa-2 cells; 24 hours): 0.167
MTS assay result, run 9 (MiaPaCa-2 cells; 24 hours): 0.170
rel amt (relative value set to the control) (MiaPaCa-2 cells; 48 hours): 67
MTS assay result, run 1 (MiaPaCa-2 cells; 48 hours): 0.229
MTS assay result, run 2 (MiaPaCa-2 cells; 48 hours): 0.22
MTS assay result, run 3 (MiaPaCa-2 cells; 48 hours): 0.218
MTS assay result, run 4 (MiaPaCa-2 cells; 48 hours): 0.232
MTS assay result, run 5 (MiaPaCa-2 cells; 48 hours): 0.294
MTS assay result, run 6 (MiaPaCa-2 cells; 48 hours): 0.272
MTS assay result, run 7 (MiaPaCa-2 cells; 48 hours): 0.221
MTS assay result, run 8 (MiaPaCa-2 cells; 48 hours): 0.243
MTS assay result, run 9 (MiaPaCa-2 cells; 48 hours): 0.241
rel amt (relative value set to the control) (MiaPaCa-2 cells; 72 hours): 132
MTS assay result, run 1 (MiaPaCa-2 cells; 72 hours): 0.667
MTS assay result, run 2 (MiaPaCa-2 cells; 72 hours): 0.615
MTS assay result, run 3 (MiaPaCa-2 cells; 72 hours): 0.605
MTS assay result, run 4 (MiaPaCa-2 cells; 72 hours): 0.587
MTS assay result, run 5 (MiaPaCa-2 cells; 72 hours): 0.582
MTS assay result, run 6 (MiaPaCa-2 cells; 72 hours): 0.491
MTS assay result, run 7 (MiaPaCa-2 cells; 72 hours): 0.524
MTS assay result, run 8 (MiaPaCa-2 cells; 72 hours): 0.604
MTS assay result, run 9 (MiaPaCa-2 cells; 72 hours): 0.584

CC(C)=CCC/C(C)=C/CC/C(C)=C/CC[C@]1(C)CCc2cc(O)c(C)c(C)c2O1 [T3 gamma, gamma tocotrienol]
rel amnt (relative value set to the control) ([1]; 24 hours): 107
MTS assay result, run 1 ([1]; 24 hours): 0.169
MTS assay result, run 2 ([1]; 24 hours): 0.161
MTS assay result, run 3 ([1]; 24 hours): 0.163
MTS assay result, run 4 ([1]; 24 hours): 0.143
MTS assay result, run 5 ([1]; 24 hours): 0.15
MTS assay result, run 6 ([1]; 24 hours): 0.158
MTS assay result, run 7 ([1]; 24 hours): 0.159
MTS assay result, run 8 ([1]; 24 hours): 0.151
MTS assay result, run 9 ([1]; 24 hours): 0.157
rel amnt (relative value set to the control) ([1]; 48 hours): 89
MTS assay result, run 1 ([1]; 48 hours): 0.114
MTS assay result, run 2 ([1]; 48 hours): 0.125
MTS assay result, run 3 ([1]; 48 hours): 0.13
MTS assay result, run 4 ([1]; 48 hours): 0.123
MTS assay result, run 5 ([1]; 48 hours): 0.137
MTS assay result, run 6 ([1]; 48 hours): 0.137
MTS assay result, run 7 ([1]; 48 hours): 0.16
MTS assay result, run 8 ([1]; 48 hours): 0.16
MTS assay result, run 9 ([1]; 48 hours): 0.135
rel amnt (relative value set to the control) ([1]; 72 hours): 177
MTS assay result, run 1 ([1]; 72 hours): 0.776
MTS assay result, run 2 ([1]; 72 hours): 0.744
MTS assay result, run 3 ([1]; 72 hours): 0.88
MTS assay result, run 4 ([1]; 72 hours): 0.734
MTS assay result, run 5 ([1]; 72 hours): 0.812
MTS assay result, run 6 ([1]; 72 hours): 0.817
MTS assay result, run 7 ([1]; 72 hours): 0.77
MTS assay result, run 8 ([1]; 72 hours): 0.759
MTS assay result, run 9 ([1]; 72 hours): 0.786
rel amt (relative value set to the control) (BXPC3 cells; 48 hours): 99
MTT assay result, av-blank (BXPC3 cells; 48 hours): 0.226
MTT assay result, av (average) (BXPC3 cells; 48 hours): 0.275
MTT assay result, run 1 (BXPC3 cells; 48 hours): 0.259
MTT assay result, run 2 (BXPC3 cells; 48 hours): 0.257
MTT assay result, run 3 (BXPC3 cells; 48 hours): 0.289
MTT assay result, run 4 (BXPC3 cells; 48 hours): 0.279
MTT assay result, run 5 (BXPC3 cells; 48 hours): 0.268
MTT assay result, run 6 (BXPC3 cells; 48 hours): 0.292
MTT assay result, run 7 (BXPC3 cells; 48 hours): 0.283
rel amt (relative value set to the control) (BXPC3 cells; 120 hours (5 days)): 66
MTT assay result, av-blank (BXPC3 cells; 120 hours (5 days)): 0.377
MTT assay result, av (BXPC3 cells; 120 hours (5 days)): 0.432
MTT assay result, run 1 (BXPC3 cells; 120 hours (5 days)): 0.418
MTT assay result, run 2 (BXPC3 cells; 120 hours (5 days)): 0.446
MTT assay result, run 3 (BXPC3 cells; 120 hours (5 days)): 0.446
MTT assay result, run 4 (BXPC3 cells; 120 hours (5 days)): 0.457
MTT assay result, run 5 (BXPC3 cells; 120 hours (5 days)): 0.428
MTT assay result, run 6 (BXPC3 cells; 120 hours (5 days)): 0.412
MTT assay result, run 7 (BXPC3 cells; 120 hours (5 days)): 0.42
rel amt (relative value set to the control) (MiaPaCa-2 cells; 24 hours): 66
MTS assay result, run 1 (MiaPaCa-2 cells; 24 hours): 0.133
MTS assay result, run 2 (MiaPaCa-2 cells; 24 hours): 0.135
MTS assay result, run 3 (MiaPaCa-2 cells; 24 hours): 0.141
MTS assay result, run 4 (MiaPaCa-2 cells; 24 hours): 0.127
MTS assay result, run 5 (MiaPaCa-2 cells; 24 hours): 0.142
MTS assay result, run 6 (MiaPaCa-2 cells; 24 hours): 0.166
MTS assay result, run 7 (MiaPaCa-2 cells; 24 hours): 0.171
MTS assay result, run 8 (MiaPaCa-2 cells; 24 hours): 0.162
MTS assay result, run 9 (MiaPaCa-2 cells; 24 hours): 0.147
rel amt (relative value set to the control) (MiaPaCa-2 cells; 48 hours): 37
MTS assay result, run 1 (MiaPaCa-2 cells; 48 hours): 0.095
MTS assay result, run 2 (MiaPaCa-2 cells; 48 hours): 0.116
MTS assay result, run 3 (MiaPaCa-2 cells; 48 hours): 0.111
MTS assay result, run 4 (MiaPaCa-2 cells; 48 hours): 0.128
MTS assay result, run 5 (MiaPaCa-2 cells; 48 hours): 0.159
MTS assay result, run 6 (MiaPaCa-2 cells; 48 hours): 0.147
MTS assay result, run 7 (MiaPaCa-2 cells; 48 hours): 0.167
MTS assay result, run 8 (MiaPaCa-2 cells; 48 hours): 0.152
MTS assay result, run 9 (MiaPaCa-2 cells; 48 hours): 0.134
rel amt (relative value set to the control) (MiaPaCa-2 cells; 72 hours): 177
MTS assay result, run 1 (MiaPaCa-2 cells; 72 hours): 0.776
MTS assay result, run 2 (MiaPaCa-2 cells; 72 hours): 0.744
MTS assay result, run 3 (MiaPaCa-2 cells; 72 hours): 0.876
MTS assay result, run 4 (MiaPaCa-2 cells; 72 hours): 0.734
MTS assay result, run 5 (MiaPaCa-2 cells; 72 hours): 0.812
MTS assay result, run 6 (MiaPaCa-2 cells; 72 hours): 0.817
MTS assay result, run 7 (MiaPaCa-2 cells; 72 hours): 0.773
MTS assay result, run 8 (MiaPaCa-2 cells; 72 hours): 0.759
MTS assay result, run 9 (MiaPaCa-2 cells; 72 hours): 0.786
